Data: patent US20130005747A1, “METHOD FOR SELECTING A CANCER THERAPY” (Cyclacel Limited, priority 2010, published 2013)

How the values were obtained:
Assay in all cases: Fractional growth, 72 h seliciclib
Assay type in all cases: cell-based, human
[1] = test system: RVH-421; conditions: RVH-421 (Skin), 15 μM seliciclib
Excerpt: (§1) A total of 270 human cancer cell lines from diverse cancer histopathologic types were investigated.

[2] = test system: NCI-H2030; conditions: NCI-H2030 (Lung: NSCLC), 15 μM seliciclib
Excerpt: as §1

[3] = test system: LU65A; conditions: LU65A (Lung: NSCLC), 15 μM seliciclib
Excerpt: as §1

[4] = test system: HCT-15; conditions: HCT-15 (Intestine), 15 μM seliciclib
Excerpt: as §1

[5] = test system: 143B; conditions: 143B (Bone), 15 μM seliciclib
Excerpt: as §1

[6] = test system: RPMI 2650; conditions: RPMI 2650 (Head & Neck), 15 μM seliciclib
Excerpt: as §1

[7] = test system: NCI-H841; conditions: NCI-H841 (Lung), 15 μM seliciclib
Excerpt: as §1

[8] = test system: UM-UC-3; conditions: UM-UC-3 (Bladder), 15 μM seliciclib
Excerpt: as §1

[9] = test system: 769-P; conditions: 769-P (Kidney), 15 μM seliciclib
Excerpt: as §1

[10] = test system: BFTC-909; conditions: BFTC-909 (Kidney), 15 μM seliciclib
Excerpt: as §1

[11] = test system: PCI-38; conditions: PCI-38 (Head & Neck), 15 μM seliciclib
Excerpt: as §1

[12] = test system: C-4 I; conditions: C-4 I (Cervix), 15 μM seliciclib
Excerpt: as §1

[13] = test system: NCI-H2170; conditions: NCI-H2170 (Lung: NSCLC), 15 μM seliciclib
Excerpt: as §1

[14] = test system: JHU-019; conditions: JHU-019 (Head & Neck), 15 μM seliciclib
Excerpt: as §1

[15] = test system: PCI-6B; conditions: PCI-6B (Head & Neck), 15 μM seliciclib
Excerpt: as §1

[16] = test system: JHH-6; conditions: JHH-6 (Liver), 15 μM seliciclib
Excerpt: as §1

[17] = test system: DK-MG; conditions: DK-MG (Brain), 15 μM seliciclib
Excerpt: as §1

[18] = test system: OE21; conditions: OE21 (Esophagus), 15 μM seliciclib
Excerpt: as §1

[19] = test system: NCI-H1915; conditions: NCI-H1915 (Lung: NSCLC), 15 μM seliciclib
Excerpt: as §1

[20] = test system: JHU-022; conditions: JHU-022 (Head & Neck), 15 μM seliciclib
Excerpt: as §1

[21] = test system: HMCB; conditions: HMCB (Skin), 15 μM seliciclib
Excerpt: as §1

[22] = test system: MIA PaCa-2; conditions: MIA PaCa-2 (Pancreas), 15 μM seliciclib
Excerpt: as §1

[23] = test system: ABC-1; conditions: ABC-1 (Lung: NSCLC), 15 μM seliciclib
Excerpt: as §1

[24] = test system: WM 266-4; conditions: WM 266-4 (Skin), 15 μM seliciclib
Excerpt: as §1

[25] = test system: A2780; conditions: A2780 (Ovary), 15 μM seliciclib
Excerpt: as §1

[26] = test system: NCI-H520; conditions: NCI-H520 (Lung: NSCLC), 15 μM seliciclib
Excerpt: as §1

[27] = test system: LU99C; conditions: LU99C (Lung: NSCLC), 15 μM seliciclib
Excerpt: as §1

[28] = test system: LNZTA3WT4; conditions: LNZTA3WT4 (Brain), 15 μM seliciclib
Excerpt: as §1

[29] = test system: SW 1116; conditions: SW 1116 (Intestine), 15 μM seliciclib
Excerpt: as §1

[30] = test system: HCC-366; conditions: HCC-366 (Lung: NSCLC), 15 μM seliciclib
Excerpt: as §1

[31] = test system: NCI-H1944; conditions: NCI-H1944 (Lung: NSCLC), 15 μM seliciclib
Excerpt: as §1

[32] = test system: COLO 205; conditions: COLO 205 (Intestine), 15 μM seliciclib
Excerpt: as §1

[33] = test system: SK-MES; conditions: SK-MES (Lung: NSCLC), 15 μM seliciclib
Excerpt: as §1

[34] = test system: H4; conditions: H4 (Brain), 15 μM seliciclib
Excerpt: as §1

[35] = test system: SHP-77; conditions: SHP-77 (Lung), 15 μM seliciclib
Excerpt: as §1

[36] = test system: H2373; conditions: H2373 (Lung), 15 μM seliciclib
Excerpt: as §1

In the case of `CC[C@H](CO)Nc1nc(NCc2ccccc2)c2ncn(C(C)C)c2n1` [seliciclib, roscovitine], the “Fractional Growth” value [1] was 0.4165, the “Fractional Growth” value [2] was 0.3063 and the “Fractional Growth” value [3] was 0.4627. The “Fractional Growth” value [4] was 0.5363, the “Fractional Growth” value [5] was 0.6124 and the “Fractional Growth” value [6] was 0.1937. The “Fractional Growth” value [7] was 0.7639, the “Fractional Growth” value [8] was 0.3538 and the “Fractional Growth” value [9] was 0.602. The “Fractional Growth” value [10] was 0.7132, the “Fractional Growth” value [11] was 0.3656 and the “Fractional Growth” value [12] was 0.5067. The “Fractional Growth” value [13] was 0.4534, the “Fractional Growth” value [14] was 0.4229 and the “Fractional Growth” value [15] was 0.5328. The “Fractional Growth” value [16] was 0.3234, the “Fractional Growth” value [17] was 0.8572 and the “Fractional Growth” value [18] was 0.4083. For the same molecule, the “Fractional Growth” value [19] was 0.4337, the “Fractional Growth” value [20] was 0.6294 and the “Fractional Growth” value [21] was 0.161. For the same molecule, the “Fractional Growth” value [22] was 0.4826, the “Fractional Growth” value [23] was 0.6543 and the “Fractional Growth” value [24] was 0.4972. The “Fractional Growth” value [25] was 0.4827, the “Fractional Growth” value [26] was 0.6863 and the “Fractional Growth” value [27] was 0.3864. The “Fractional Growth” value [28] was 0.6936, the “Fractional Growth” value [29] was 0.7592 and the “Fractional Growth” value [30] was 0.2561. The “Fractional Growth” value [31] was 0.6921, the “Fractional Growth” value [32] was 0.4437 and the “Fractional Growth” value [33] was 0.4439. For the same molecule, the “Fractional Growth” value [34] was 0.9708, the “Fractional Growth” value [35] was 0.617 and the “Fractional Growth” value [36] was 0.6168.
